Read-outs that look alike come from different tables or passages of the source. Some results are limits rather than exact numbers.

The subject of the test is MDA-MB-231. Description: Cell viability (CellTiter-Blue, 72 h), MDA-MB-231 breast cancer cells. As to conditions: for IC50: Homo sapiens; for effect (but only 50% effect): extent of effect reached. In kind it is cell-based. On the procedure: The cell lines tested in this Example were as follows. Breast cancer: MDA-MB-231; SK-BR3; and BT474. Liver cancer: HepG2.
The phytocannabinoids were tested alone and in various ratioed combinations in media containing final concentrations of 10% and 1% foetal bovine serum at 72 h for the breast and prostate cancer lines and 1% foetal bovine serum for the liver cancer line HepG2.
Each tumour cell line was maintained in vitro in RPMI 1640+10% heat inactivated FBS and 2 mM L-glutamine (growth media) at 37° C. in 5% CO2 and humidified conditions. The cells were harvested, washed, re-suspended into growth medium and counted. The cells were re-suspended into assay media (RPMI 1640+5% heat inactivated FBS+ and 2 mM L-glutamine) at 8×104-2×10^5 cells/ml (dependent upon cell type) and plated into the middle 240 wells of 384 well tissue culture plates (Corning CellBind, black-wall plates) 12.5 μl/well aliquots; 62.5 μl of growth media was aliquoted into the outer wells. There were 4 plates for each cell line. The plates were incubated overnight at 37° C., in 5% humidified CO2.
The phytocannabinoid test compounds were prepared in 100% DMSO vehicle at a stock concentration of 10 mM.
Starting with the 10 mM stock, the compounds were diluted to 125 μM in FBS-free growth media.
These were diluted in FBS-free growth media to 125 μM before serial dilution.
5 volumes of CBD 10 mM stock was added to 1 volume of the other agent (also at 10 mM) and 4 volumes of DMSO. This made a final concentration of 5 mM:1 mM. This was then diluted in FBS-free growth media so the top concentration of CBD would be 125 μM (before serial dilution). Each compound and compound combination stock was serially diluted in FBS-free growth media (containing 1.25% v/v DMSO) from 125 μM to 41.7, 13.89, 4.63, 1.54, 0.514, 0.171, 0.057 and 0.019 μM (1.25× final assay concentrations). Vehicle was prepared at equivalent dilutions in assay media. The top final concentration of compound in the assay was always 100 μM so CBD5:1CBG was 100 μM CBD and 20 μM CBG.
Taxotere SOC was prepared at a stock concentration of 1 mM in 100% DMSO. Taxotere was serially diluted from the stock solution into FBS-free growth media to 12.5 μM, then serially diluted in FBS-free growth media containing 1.25% DMSO to 4.17, 1.39, 0.46, 0.154, 0.051, 0.017, 0.006, 0.002 μM (1.25× final assay concentrations).
The plates were incubated for 72 h at 37° C. in 5% humidified CO2. To develop the plates, at 72 h, 10 μl of CellTiter-Blue™ reagent was added to each test/blank well. The plates were incubated at 37° C., 5% humidified CO2. Fluorescence was measured using a Flex II Station plate reader (570 nm excitation wavelength, 600 nm emission wavelength, 590 nm cut-off) after 3 h.
The experimental conditions were the same as the experiment above, with the same compound dilutions and volumes for plating but using growth media containing 10% FBS rather than FBS-free media.
The raw data values expressed in relative fluorescent units were normalised to the vehicle for each individual plate and any reduction in fluorescence indicated a decrease in viability.
The data were analysed in GraphPad PRISM using a non-linear sigmoidal plot with variable slope (asymmetric five point linear regression) and where possible an IC50 value for each single compound and combination was generated.
For the calculation, raw data values expressed in relative fluorescent units were normalised to the vehicle for each individual plate (set as 0%) and the reduction in fluorescence calculated as an increase in inhibition of viability.
The data was formatted in Excel for each assay plate so that the average effect at each concentration for each separate phytocannabinoid and each of the combinations could be determined.
The mean data at each concentration of CBD was imported into the analysis package Calcusyn. Calcusyn software was designed by M. Hayball and C.
On the technique in general: Alamar Blue is a resazurin reagent that responds to reducing activity.

Where [1] appears, read: MDA-MB-231, 72 h, read-out: IC50 values, MDA-MB-231, 1% FBS, 72 h.
The mark [2] stands for this setting: MDA-MB-231, 72 h, read-out: IC50 values, MDA-MB-231, 10% FBS, 72 h.
Where [3] appears, read: MDA-MB-231, read-out: Dm (median effect dose), MDA-MB-231, 1% FBS, Calcusyn median-effect analysis.

As for `C=C(C)[C@@H]1CCC(C)=C[C@H]1c1c(O)cc(CCCCC)cc1O` [CBD, Cannabidiol], the IC50 runs as follows: under setting [1], 7.4 µM; under setting [2], 27 µM; under setting [3], 5.61 µM.
For the compound `C=C(C)[C@@H]1CCC(C)=C[C@H]1c1c(O)cc(CCCCC)c(C(=O)O)c1O` [CBDA, Cannabidiolic acid], the IC50 runs as follows: under setting [1], 30 µM; under setting [3], 20 µM. Also, under “MDA-MB-231, 10% FBS, 72 h”, the IC50 values entry is “NE at 100 μM”.
Consider `CCCCCc1cc(O)c(C/C=C(\C)CCC=C(C)C)c(O)c1` [CBG, Cannabigerol], for which the IC50 runs as follows: under setting [1], 4.1 µM; under setting [2], 29 µM; under setting [3], 14.2 µM.
For `CCCCCc1cc(O)c(C/C=C(\C)CCC=C(C)C)c(O)c1C(=O)O` [CBGA, Cannabigerolic acid] the same measures were 16 µM, ~100 µM and 43.5 µM.
Take `CCCc1cc(O)c2c(c1)OC(C)(C)[C@@H]1CCC(C)=C[C@@H]21` [THCV, Tetrahydrocannabivarin]: the IC50 under setting [1] is 14.4 µM, the IC50 under setting [2] worked out at 36 µM and the IC50 under setting [3] was 39 µM.
For `CC(=O)O[C@@]12CO[C@@H]1C[C@H](O)[C@@]1(C)C(=O)[C@H](O)C3=C(C)[C@@H](OC(=O)[C@H](O)[C@@H](NC(=O)OC(C)(C)C)c4ccccc4)C[C@@](O)([C@@H](OC(=O)c4ccccc4)[C@H]21)C3(C)C` [Taxotere, Docetaxel, reference compound], the IC50 runs as follows: under setting [1], < 0.001 µM; under setting [2], < 0.001 µM. The “effect (but only 50% effect)” value was “only 50%” (MDA-MB-231, 1% FBS) and “only 50%” (MDA-MB-231, 10% FBS).

(Values after patent publication US9962341B2, “Active pharmaceutical ingredient (API) comprising cannabinoids for use in the treatment of cancer” (GW Pharma Limited, priority 2014, dated 2018).)
